Experimental data: PubChem BioAssay AID248 (DTP/NCI, 2004)
Several values for one entry are separate records, joined by “and”; a condition that tells them apart may be missing. Equal values may be shown once. Inconclusive results and toxic doses are left out. Rule as the data show it: active = T/C of 150% or more; inactive = T/C below 125%.

System: L1210 leukemia ip in BDF1 mice, survival T/C
Experiment: NCI In Vivo Anticancer Drug Screen. Data for tumor model L1210 Leukemia (intraperitoneal) in B6D2F1 (BDF1) mice
Conditions: endpoint: mean survival time, higher = longer survival
Outline: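 Survival endpoint. Drug-treated group vs vehicle group, expressed as T divided by C. Tumor passaged by transplantation.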

[1] = dose: 100.0 mg/kg/injection, schedule: Q01DX009 (ip), vehicle: saline with Tween-80
[2] = dose: 50.0 mg/kg/injection, schedule: Q01DX009 (ip), vehicle: Klucel (hydroxypropylcellulose) (HPC)
[3] = dose: 100.0 mg/kg/injection, schedule: Q01DX009 (ip), vehicle: Klucel (hydroxypropylcellulose) (HPC)
[4] = dose: 100.0 mg/kg/injection, schedule: Q04DX003 (ip), vehicle: Klucel (hydroxypropylcellulose) (HPC)
[5] = dose: 200.0 mg/kg/injection, schedule: Q01DX009 (ip), vehicle: Klucel (hydroxypropylcellulose) (HPC)
[6] = dose: 200.0 mg/kg/injection, schedule: Q04DX003 (ip), vehicle: Klucel (hydroxypropylcellulose) (HPC)
[7] = dose: 100.0 mg/kg/injection, schedule: Q01DX001 (ip), vehicle: carboxymethylcellulose (CMC)
[8] = dose: 200.0 mg/kg/injection, schedule: Q01DX001 (ip), vehicle: carboxymethylcellulose (CMC)
[9] = dose: 400.0 mg/kg/injection, schedule: Q01DX009 (ip), vehicle: Klucel (hydroxypropylcellulose) (HPC)
[10] = dose: 75.0 mg/kg/injection, schedule: Q01DX001 (ip), vehicle: carboxymethylcellulose (CMC)
[11] = dose: 100.0 mg/kg/injection, schedule: Q01DX009 (ip), vehicle: saline
[12] = dose: 200.0 mg/kg/injection, schedule: Q01DX009 (ip), vehicle: saline

Measured: T/C

CCSc1ccc2c(cc1=O)C(NC(C)=O)CCc1cc(OC)c(OC)c(OC)c1-2 (configuration not stated)
inactive: dose: 25.0 mg/kg/injection, schedule: Q04DX002 (ip), vehicle: Klucel (hydroxypropylcellulose) (HPC) 105 % of control | dose: 50.0 mg/kg/injection, schedule: Q04DX002 (ip), vehicle: Klucel (hydroxypropylcellulose) (HPC) 102 % of control

CC1CCCCC1NC(=O)NCCOC(=O)OCCNC(=O)NC1CCCCC1C (configuration not stated)
inactive: [1] 95 % of control | dose: 100.0 mg/kg/injection, schedule: Q04DX003 (ip), vehicle: saline with Tween-80 100 % of control | dose: 200.0 mg/kg/injection, schedule: Q01DX009 (ip), vehicle: saline with Tween-80 95 % of control | dose: 200.0 mg/kg/injection, schedule: Q04DX003 (ip), vehicle: saline with Tween-80 91 % of control | dose: 400.0 mg/kg/injection, schedule: Q01DX009 (ip), vehicle: saline with Tween-80 90 % of control | dose: 400.0 mg/kg/injection, schedule: Q04DX003 (ip), vehicle: saline with Tween-80 86 % of control

O=C(O)c1cc(C(=O)c2ccccn2)c2cccc(C(F)(F)F)c2n1
inactive: [2] 98 % of control | [3] 95 % of control | [4] 97 % of control | [5] 93 % of control | [6] 97 % of control

CC(C)NCC1CCCCO1 (configuration not stated)
inactive: dose: 55.0 mg/kg/injection, schedule: Q01DX Z (ip), vehicle: methylcellulose (MC) 91 % of control | dose: 83.0 mg/kg/injection, schedule: Q01DX Z (ip), vehicle: methylcellulose (MC) 88 % of control | dose: 125.0 mg/kg/injection, schedule: Q01DX Z (ip), vehicle: methylcellulose (MC) 100 % of control

COc1ccc(-c2c3c(cc4cc(OC)c(OC)cc24)C(=O)OC3=O)cc1OC
inactive: [7] 93 % of control | [8] 89 % of control | dose: 400.0 mg/kg/injection, schedule: Q01DX001 (ip), vehicle: carboxymethylcellulose (CMC) 89 % of control

C=C(C)C1Cc2c(ccc3c(=O)c4c(oc23)COc2cc(OC)c(OC)cc2-4)O1 (configuration not stated)
inactive: [3] 90 % of control | [5] 93 % of control | [9] 95 % of control

[Cl][Cu][Cl]
inactive: dose: 3.13 mg/kg/injection, schedule: Q01DX009 (ip), vehicle: saline 100 % of control | dose: 6.25 mg/kg/injection, schedule: Q01DX009 (ip), vehicle: saline 95 % of control | dose: 6.25 mg/kg/injection, schedule: Q04DX003 (ip), vehicle: saline 102 % of control | dose: 12.5 mg/kg/injection, schedule: Q01DX009 (ip), vehicle: saline 90 % of control | dose: 12.5 mg/kg/injection, schedule: Q04DX003 (ip), vehicle: saline 107 % of control

O=C([O-])C(=O)[O-].[Cu+2].[OH2+]CC[N-]CC[OH2+].[OH2+]CC[N-]CC[OH2+]
inactive: dose: 5.0 mg/kg/injection, schedule: Q01DX001 (ip), vehicle: saline 97 % of control | dose: 10.0 mg/kg/injection, schedule: Q01DX001 (ip), vehicle: saline 92 % of control | dose: 20.0 mg/kg/injection, schedule: Q01DX001 (ip), vehicle: saline 103 % of control

CN1C2CNC(=O)CC1C1CCC2C1 (configuration not stated)
inactive: dose: 25.0 mg/kg/injection, schedule: Q04DX002 (ip), vehicle: saline 94 % of control | dose: 50.0 mg/kg/injection, schedule: Q04DX002 (ip), vehicle: saline 102 % of control | [10] 106 % of control

O=[N+]([O-])c1cccc(S(=O)(=O)NNc2cccc(C(F)(F)F)c2)c1
inactive: [4] 99 % of control | [6] 94 % of control | dose: 400.0 mg/kg/injection, schedule: Q04DX003 (ip), vehicle: Klucel (hydroxypropylcellulose) (HPC) 89 % of control

Clc1ccc(NC2=NCCCS2)c2ccccc12
inactive: dose: 25.0 mg/kg/injection, schedule: Q01DX009 (ip), vehicle: Klucel (hydroxypropylcellulose) (HPC) 98 % of control | [2] 102 % of control | [3] 94 % of control and 92 % of control | [4] 97 % of control | [6] 90 % of control

COC1(C(=O)OOC(C)(C)C)CC1(c1ccccc1)c1ccccc1 (configuration not stated)
inactive: dose: 50.0 mg/kg/injection, schedule: Q01DX001 (ip), vehicle: Klucel (hydroxypropylcellulose) (HPC) 107 % of control | dose: 100.0 mg/kg/injection, schedule: Q01DX001 (ip), vehicle: Klucel (hydroxypropylcellulose) (HPC) 102 % of control | dose: 200.0 mg/kg/injection, schedule: Q01DX001 (ip), vehicle: Klucel (hydroxypropylcellulose) (HPC) 100 % of control

CCC(CC)NCC(C)OC(=O)c1ccc([N+](=O)[O-])cc1 (configuration not stated)
inactive: [10] 96 % of control | dose: 150.0 mg/kg/injection, schedule: Q01DX001 (ip), vehicle: carboxymethylcellulose (CMC) 105 % of control | dose: 300.0 mg/kg/injection, schedule: Q01DX001 (ip), vehicle: carboxymethylcellulose (CMC) 97 % of control

C=C1C(=O)OC2C1CCC(C)C1C=CC(=O)C12C (configuration not stated)
inactive: dose: 50.0 mg/kg/injection, schedule: Q01DX009 (ip), vehicle: saline 98 % of control | [11] 96 % of control | [12] 98 % of control

CN(N=O)C(=O)NCCc1ccc(OC(=O)N(C)N=O)cc1
inactive: dose: 0.78 mg/kg/injection, schedule: Q01DX Z (ip), vehicle: carboxymethylcellulose (CMC) 98 % of control | dose: 1.56 mg/kg/injection, schedule: Q01DX Z (ip), vehicle: carboxymethylcellulose (CMC) 110 % of control | dose: 3.12 mg/kg/injection, schedule: Q01DX Z (ip), vehicle: carboxymethylcellulose (CMC) 95 % of control | dose: 6.25 mg/kg/injection, schedule: Q01DX Z (ip), vehicle: carboxymethylcellulose (CMC) 113 % of control | dose: 12.5 mg/kg/injection, schedule: Q01DX Z (ip), vehicle: carboxymethylcellulose (CMC) 118 % of control | dose: 25.0 mg/kg/injection, schedule: Q01DX Z (ip), vehicle: carboxymethylcellulose (CMC) 124 % of control | dose: 50.0 mg/kg/injection, schedule: Q01DX Z (ip), vehicle: carboxymethylcellulose (CMC) 91 % of control

COc1cc2ccnc(-c3onc4cc(OC)c(OC)cc34)c2cc1OC
inactive: dose: 75.0 mg/kg/injection, schedule: Q01DX001 (ip), vehicle: saline 101 % of control | dose: 150.0 mg/kg/injection, schedule: Q01DX001 (ip), vehicle: saline 98 % of control | dose: 300.0 mg/kg/injection, schedule: Q01DX001 (ip), vehicle: saline 98 % of control

CCCCNC(C)(C)C(SC(C)=O)c1ccc(Cl)cc1 (configuration not stated)
inactive: [1] 89 % of control

Clc1ccc(Cl)c(-c2csc(-c3cccnc3)n2)c1
inactive: [11] 100 % of control | [12] 100 % of control | dose: 400.0 mg/kg/injection, schedule: Q01DX009 (ip), vehicle: saline 89 % of control

O=C1OC(c2ccccc2)=N/C1=C\c1ccccc1Cl
inactive: dose: 100.0 mg/kg/injection, schedule: Q04DX002 (ip), vehicle: saline with Tween-80 87 % of control | dose: 200.0 mg/kg/injection, schedule: Q04DX002 (ip), vehicle: saline with Tween-80 94 % of control

CCOC(=O)Nc1cc(Cl)ccc1OC
inactive: [3] 107 % of control | [5] 91 % of control | [9] 93 % of control

COc1cc(OC)c(NC(=O)c2ccccc2Cl)cc1Cl
inactive: [3] 92 % of control | [5] 90 % of control | [9] 93 % of control

NC1CON(C(c2ccccc2)(c2ccccc2)c2ccccc2)C1=O (configuration not stated)
inactive: [7] 94 % of control | [8] 89 % of control

Cc1cc(=O)cc(Nc2ccccc2)o1
inactive: dose: 100.0 mg/kg/injection, schedule: Q04DX002 (ip), vehicle: Klucel (hydroxypropylcellulose) (HPC) 93 % of control | dose: 200.0 mg/kg/injection, schedule: Q04DX002 (ip), vehicle: Klucel (hydroxypropylcellulose) (HPC) 90 % of control | dose: 400.0 mg/kg/injection, schedule: Q04DX002 (ip), vehicle: Klucel (hydroxypropylcellulose) (HPC) 101 % of control
